# Results from patent publication US5041535A, “Antileukemic and immunostimulant peptides” (Richter Gedeon Vegyeszeti Gyar Rt., priority 1986, dated 1991).
# Square brackets hold non-standard residues; d marks the D form. Peptide text beside a SMILES is read from it. pGlu = O=C1CC[C@@H](C(=O)O)N1
# Assays:
# [1] = system: human K-562 erythroleukaemical cell-line; test: Inhibition of the proliferation of tumor cells (K-562); format: cell-based; conditions: 72nd hour after treatment, percentage of the control
# Procedure: In the test human K-562 erythroleukaemical cell-line is used (Karolinska Institute, Stockholm). Incubation is carried out in a nutrient medium designated RPMI-1640 (manufactured by Flow, Great Britain) comprising 10% of foetal calf serum, at a temperature of 37° C., in a humidified incubator containing 3% of carbon dioxide, in plastic dishes. Every point of measurement corresponds to the average of the data measured in three dishes, each. At the beginning of the test the dilution amounts to 0.5×10^5 cells/ml. Treatment is carried out 24 hours after dilution in a manner that the medium is not changed after the treatment. The cells are counted for 96 hours after dilution every 24th hour wit the aid of a Buerker chamber.
# Under the effect of the peptide in the 24th hour after treatment the cell number stagnates and later it increases to a very small extent. […] The tumor-cell division inhibiting effect of the new peptides is summarized in Table 1 (72 hours after treatment). The rate of inhibition is expressed in the percentage of the control. It clearly appears from the data of the Table that the tested peptides inhibit the proliferation of human K-562 erythroleukaemic cells.
# [2] = system: lymphocytes inhibited by Azathioprine; test: E-rosetta test inhibited by Azathioprine; format: cell-based
# Procedure: Inhibition of the proliferation of T-lymphocytes is tested in the E-rosetta test inhibited by Azathioprine [6-(1-methyl-4-nitroimidazole-5-yl-thio)-purine; Thymus 1, 195 (1980)].
# To 200 μl of a healthy lymphocyte cell-suspension 500 μl/ml of Azathioprine and 200 μl of a separate dilution of the test compound in HBBS buffer (manufacturer: Flow, Great Britain) are added (concentration range: 10^-3 to […]). The mixture is incubated at a temperature of 37° C. in air containing 5% of carbon dioxide for 60 minutes, whereupon 200 μl of a 1% sheep erythrocyte suspension are added. The mixture thus-obtained is centrifuged at 1,000 r.p.m. for 5 minutes, the supernatant is removed by decanting and in the suspension the lymphocytes forming E-rosetta are counted under a microscope from at least 400 cells.
# Under the effect of the peptides the E-rosetta forming activity of the lymphocytes inhibited by Azathioprine increases to different extent. […] It appears from the data of Table 2 that the tested peptides increase the E-rosetta forming capacity of inhibited lymphocytes, i.e. the peptides of the present invention show immunostimulant effect.
# [3] = system: antibody production inhibited by cyclophosphamide; test: Effect on antibody production in mice treated with cyclophosphamide; format: in vivo, CELP mice; conditions: cyclophosphamide 100 mg/kg i.p., titer on 6th day
# Procedure: The effect on in vivo antibody production is tested on CELP mice treated with a 100 mg/kg body weight dose of cyclophosphamide {2-[bis-(2-chloroethyl)-amino]-tetrahydro-2H-1,3,2-oxaza -phosphorine-2-oxide; method: Z. Naturforsch. 35B, 1476 (1980)}. The mice are intraperitoneally immunized with a 1% sheep erythrocyte suspension previously washed three times with a 0.9% sodium chloride solution after 10 minutes of centrifuging at 2,500 r.p.m. Simultaneously with immunization carried out on the 0. day, the activity of the immune system is suppressed by means of treatment with a 100 mg/kg i.p. does of cyclophosphamide. On the 3rd day of the test the peptides are administered to the animals intraperitoneally in a dose of 5, 50 and occasionally 100 mg/kg respectively. On the 6th day of the test blood is taken retroorbitally from the mice and the anti-sheep erythrocyte titer of the serum is determined. […] The effect of the peptides is expressed as percentage of the relief of inhibition (G %).
# [4] = system: inflammation induced by oxozolone; test: Dermatitis test induced with oxazolone; format: in vivo, CFLP mice; conditions: 24th hour after treatment, ear weight increase
# Procedure: In this test a modified pharmacological model of D. P. Evans et al. [Br. J. Pharmac. 43, 403-488 (1971)] is used.
# The abdominal skin of male CFLP mice weighing 20-22 g is painted after the removal of the hair with 0.1 ml of a 2% solution of oxazolon (4-ethoxymethyl-2-phenyl-oxazoline, manufacturer Sigma) in sunflower oil. On the right ear of the test animals 7 days after sensitization (painting) inflammatory reaction is induced with the aid of 10 μl of a 2% acetonous oxazolone solution and simultaneously the animals are treated with a 1 or 2 mg/kg, respectively, i.p. does of the test compound. The test compound is dissolved in a physiological sodium chloride solution in such a concentration that the active ingredient content corresponding to the dose should be dissolved in a volume of 0.5 ml/10 g animal body weight.
# The antiinflammatory effect is determined as follows: the animals are sacrificed in the 24th hour after treatment, whereupon the right and left ears are cut off. The percentual weight increase of the right ear related to the left ear is characteristic of the rate of inflammation induced during the test, while the percentual reduction of weight increase of the treated animals related to the untreated control is proportional to the antiinflammatory effect. In Table 4 the reduction of weight increase (antiinflammatory effect) achieved by the test compounds is disclosed, as the percentage of the untreated control.
# [5] = peptide 5 mg/kg i.p. on 3rd day
# [6] = peptide 50 mg/kg i.p. on 3rd day
SMILES,"Inhibition of the proliferation of K-562 cells, inhibition (c %) ([1]; peptide 10/ug/ml) [%]",Relief of inhibition (R %) of E-rosetta forming activity ([2]; peptide 10^-3 mole/l) [%],Relief of inhibition (R %) of E-rosetta forming activity ([2]; peptide 10^-5 mole/l) [%],Relief of inhibition (R %) of E-rosetta forming activity ([2]; peptide 10^-7 mole/l) [%],Relief of inhibition (R %) of E-rosetta forming activity ([2]; peptide 10^-9 mole/l) [%],Relief of inhibition (R %) of E-rosetta forming activity ([2]; peptide 10^-11 mole/l) [%],"Inhibition of the proliferation of K-562 cells, inhibition (c %) ([1]; peptide 1/ug/ml) [%]","Restoration of primary immune answer, G % [3, 5] [%]","Restoration of primary immune answer, G % [3, 6] [%]","Inhibition of inflammation induced by oxozolone, inhibition as % of control ([4]; 1 mg/kg i.p.) [%]","Inhibition of inflammation induced by oxozolone, inhibition as % of control ([4]; 2 mg/kg i.p.) [%]","Restoration of primary immune answer, G % ([3]; peptide 100 mg/kg i.p. on 3rd day) [%]"
"CC(C)[C@H](NC(=O)[C@H](CC(=O)O)NC(=O)[C@H](CCCCN)NC(=O)[C@@H](N)CCCN=C(N)N)C(=O)N[C@@H](Cc1ccc(O)cc1)C(=O)O [A, Arg--Lys--Asp--Val--Tyr, reference compound] (H-RKDVY-OH)",32,31.7,29.3,38.7,30.0,19.4,,,,,,
"N=C(N)NCCC[C@H](N)C(=O)N[C@@H](CCCCN)C(=O)N[C@@H](CCC(=O)O)C(N)=O [Peptide 3, Arg-Lys-Glu-NH2] (H-Arg-Lys-Glu-NH2)",52,24.3,22.6,15.6,24.8,17.0,40,78.1,47.6,,,
"N=C(N)NCCC[C@H](N)C(=O)N[C@@H](CCCCN)C(=O)N[C@@H](CCC(=O)O)C(=O)O [Peptide 5, Arg-Lys-GIu-OH] (H-Arg-Lys-Glu-OH)",48,24.5,24.6,24.7,24.0,27.5,40,61.5,76.9,,,
"CC(C)C[C@H](NC(=O)[C@@H](N)CCC(=O)O)C(=O)N[C@H](C(=O)N[C@@H](C)C(=O)O)C(C)C [Peptide 13, GIu-Leu-VaI-AIa-OH] (H-ELVA-OH)",65,,,,,,55,20.9,32.8,40,,
"NCCCC[C@H](NC(=O)[C@H](CCC(=O)O)NC(=O)[C@@H]1CCC(=O)N1)C(N)=O [Peptide 2, Glp-Glu-Lys-NH2] ([pGlu]-Glu-Lys-NH2)",55,25.4,20.2,31.7,24.3,37.1,40,23.0,3.0,,,
"CC(C)C[C@H](N)C(=O)N[C@H](C(=O)N[C@@H](C)C(=O)O)C(C)C [Peptide 7, Leu-VaI-AIa-OH] (H-Leu-Val-Ala-OH)",52,,,,,,38,73.3,100.0,,,
"NCCCC[C@H](NC(=O)[C@H](CCCCN)NC(=O)[C@H](CCC(=O)O)NC(=O)[C@@H](N)CCCCN)C(=O)O [Peptide 10, Lys-GIu-Lys-Lys-OH] (H-KEKK-OH)",40,22.9,16.3,25.2,21.1,26.6,28,15.5,37.7,22,79,
"CC(C)C[C@H](N)C(=O)N1CCC[C@H]1C(=O)N[C@@H](C)C(=O)NCC(=O)O [Peptide 14, Leu-Pro AIa-Gly-OH] (H-LPAG-OH)",70,,,,,,45,34.0,56.8,55,,
"N=C(N)NCCC[C@H](N)C(=O)N[C@@H](CCCCN)C(=O)N[C@@H](CC(=O)O)C(N)=O [Peptide 4, Arg-Lys-Asp-NH2] (H-Arg-Lys-Asp-NH2)",50,29.7,30.0,18.7,23.9,18.5,25,,,27,,28.5
"CC(C)[C@H](NC(=O)[C@H](CC(=O)O)NC(=O)[C@H](CCCCN)NC(=O)[C@@H](N)CCCNC(=N)N)C(=O)O [B, Arg--Lys--Asp--Val, reference compound] (H-RKDV-OH)",4,35.4,35.4,46.4,32.5,34.0,,,,,,
